11 compounds from patent US5075440A, “Novel pyrido[2,3-f](1,4)thiazepines and pyrido[3,2-b](1,5)benzothiazepines” (Ortho Pharmaceutical Corporation, priority 1990, dated 1991) can be followed below.

The subject of one experiment is aorta tissue. Kind of experiment: Inhibition of calcium dependent smooth muscle contraction, aorta (P#176 Aorta). The arrangement: species or system dog. The settings on record: Canis lupus familiaris, 50 mM KCl contraction, read-out: P#176 Aorta % INHB/μM. The protocol: (§1) The test for inhibition of calcium dependent smooth muscle contraction is determined according to the following procedure:
(§2) The trachea and the aorta from dogs sacrificed by excess KCl injection are stored overnight at 4° C. in oxygenated Krebs-Henseleit buffer. Tracheal rings, one cartilage segment wide (5-10 mm), are cut starting from the bronchial end. Rings of aorta tissue of the same width are also prepared. After cutting the cartilage, the trachealis muscle tissue and the aorta tissue are suspended in oxygenated Krebs-Henseleit buffer at 37° C. in a 25 ml tissue bath. After a 60-minute equilibration period, the tissues are challenged with 10 μM carbachol. After 5 minutes, the tissues are rinsed and allowed to rest 50 minutes. The tissues are then challenged with 50 mM KCl and, after 30 minutes, the contractions are quantitated. The tissues are then rinsed and reequilibrated for 50 minutes. Test compounds are then added for 10 minutes, and the tissue is rechallenged with 50 mM KCl. After 30 minutes, the contraction is recorded and used to determine the % inhibition of control.
(§3) The percent inhibition of smooth muscle contraction is calculated from response data before and after drug treatment. [formula]

The next experiment concerns trachealis muscle tissue. Briefly: Inhibition of calcium dependent smooth muscle contraction, trachea (P#176 Trach). The settings on record: Canis lupus familiaris, 50 mM KCl contraction, read-out: P#176 Trach % INHB/μM. Also on record: species or system dog. The protocol:
as §1, §2, §3

The target of experiment [1] is T1, Calcium Channel (3H-nitrendipine binding, heart membranes) (Oryctolagus cuniculus, UniProt P15381).
T1 construct: the heart is immediately removed, cleaned and chopped into small pieces; The tissue is homogenized; from tissue; host or cells: heart membranes of female New Zealand white rabbits (42,000×g pellet)
T1 sequence (P15381 whole entry, other chains not shown): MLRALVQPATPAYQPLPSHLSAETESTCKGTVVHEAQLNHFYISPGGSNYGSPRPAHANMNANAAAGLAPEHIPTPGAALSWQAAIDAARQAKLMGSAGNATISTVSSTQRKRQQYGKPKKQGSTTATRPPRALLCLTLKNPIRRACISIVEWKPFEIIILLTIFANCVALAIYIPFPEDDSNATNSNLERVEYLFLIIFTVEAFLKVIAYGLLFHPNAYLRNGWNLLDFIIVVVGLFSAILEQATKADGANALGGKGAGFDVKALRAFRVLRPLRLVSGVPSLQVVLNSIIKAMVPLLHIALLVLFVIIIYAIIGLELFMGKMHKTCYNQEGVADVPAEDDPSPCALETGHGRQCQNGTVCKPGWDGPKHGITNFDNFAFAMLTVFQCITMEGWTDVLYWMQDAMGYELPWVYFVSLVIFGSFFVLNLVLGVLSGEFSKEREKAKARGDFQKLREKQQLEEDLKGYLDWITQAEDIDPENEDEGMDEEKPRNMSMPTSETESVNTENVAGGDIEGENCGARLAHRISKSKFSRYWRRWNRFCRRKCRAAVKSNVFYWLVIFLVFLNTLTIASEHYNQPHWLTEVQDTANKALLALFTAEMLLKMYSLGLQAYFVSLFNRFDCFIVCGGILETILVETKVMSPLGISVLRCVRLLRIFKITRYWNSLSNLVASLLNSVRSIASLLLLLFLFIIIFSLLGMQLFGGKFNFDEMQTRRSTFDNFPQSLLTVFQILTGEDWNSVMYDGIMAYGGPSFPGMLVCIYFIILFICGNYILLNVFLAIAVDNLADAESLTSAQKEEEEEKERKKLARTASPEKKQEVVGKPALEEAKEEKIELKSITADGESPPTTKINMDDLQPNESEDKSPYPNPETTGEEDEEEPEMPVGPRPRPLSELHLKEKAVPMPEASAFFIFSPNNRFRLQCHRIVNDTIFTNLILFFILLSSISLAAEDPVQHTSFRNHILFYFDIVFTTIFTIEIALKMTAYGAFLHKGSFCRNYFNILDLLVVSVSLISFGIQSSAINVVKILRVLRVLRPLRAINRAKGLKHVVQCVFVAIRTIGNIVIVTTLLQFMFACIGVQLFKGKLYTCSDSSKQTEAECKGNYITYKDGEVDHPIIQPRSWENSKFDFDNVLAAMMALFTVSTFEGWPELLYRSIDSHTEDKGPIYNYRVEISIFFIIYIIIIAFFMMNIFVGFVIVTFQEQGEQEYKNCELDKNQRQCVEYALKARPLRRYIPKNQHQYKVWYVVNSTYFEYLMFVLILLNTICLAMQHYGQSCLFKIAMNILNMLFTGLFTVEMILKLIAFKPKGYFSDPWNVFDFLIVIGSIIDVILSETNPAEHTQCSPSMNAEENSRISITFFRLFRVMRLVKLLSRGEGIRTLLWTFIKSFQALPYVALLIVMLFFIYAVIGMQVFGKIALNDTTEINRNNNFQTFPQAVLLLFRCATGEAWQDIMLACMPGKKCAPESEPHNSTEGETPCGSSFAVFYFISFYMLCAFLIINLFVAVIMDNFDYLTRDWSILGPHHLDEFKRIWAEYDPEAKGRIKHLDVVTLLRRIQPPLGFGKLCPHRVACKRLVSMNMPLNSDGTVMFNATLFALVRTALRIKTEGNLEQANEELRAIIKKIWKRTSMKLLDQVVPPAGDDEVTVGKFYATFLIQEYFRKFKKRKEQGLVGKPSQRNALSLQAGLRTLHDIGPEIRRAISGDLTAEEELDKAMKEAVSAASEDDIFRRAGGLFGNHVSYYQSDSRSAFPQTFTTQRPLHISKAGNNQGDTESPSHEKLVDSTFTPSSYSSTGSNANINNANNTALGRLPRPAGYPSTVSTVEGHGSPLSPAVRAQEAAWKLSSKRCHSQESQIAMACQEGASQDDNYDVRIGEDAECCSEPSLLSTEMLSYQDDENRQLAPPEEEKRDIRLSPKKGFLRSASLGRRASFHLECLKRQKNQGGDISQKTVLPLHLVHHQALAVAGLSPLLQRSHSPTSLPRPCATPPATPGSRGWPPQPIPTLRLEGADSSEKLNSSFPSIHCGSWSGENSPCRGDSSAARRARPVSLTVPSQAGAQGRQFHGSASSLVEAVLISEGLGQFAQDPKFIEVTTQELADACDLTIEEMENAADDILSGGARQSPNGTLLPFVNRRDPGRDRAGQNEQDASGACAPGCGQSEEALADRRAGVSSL
T1 sequence (P13806 27-960 partner limits assumed, other chains not shown): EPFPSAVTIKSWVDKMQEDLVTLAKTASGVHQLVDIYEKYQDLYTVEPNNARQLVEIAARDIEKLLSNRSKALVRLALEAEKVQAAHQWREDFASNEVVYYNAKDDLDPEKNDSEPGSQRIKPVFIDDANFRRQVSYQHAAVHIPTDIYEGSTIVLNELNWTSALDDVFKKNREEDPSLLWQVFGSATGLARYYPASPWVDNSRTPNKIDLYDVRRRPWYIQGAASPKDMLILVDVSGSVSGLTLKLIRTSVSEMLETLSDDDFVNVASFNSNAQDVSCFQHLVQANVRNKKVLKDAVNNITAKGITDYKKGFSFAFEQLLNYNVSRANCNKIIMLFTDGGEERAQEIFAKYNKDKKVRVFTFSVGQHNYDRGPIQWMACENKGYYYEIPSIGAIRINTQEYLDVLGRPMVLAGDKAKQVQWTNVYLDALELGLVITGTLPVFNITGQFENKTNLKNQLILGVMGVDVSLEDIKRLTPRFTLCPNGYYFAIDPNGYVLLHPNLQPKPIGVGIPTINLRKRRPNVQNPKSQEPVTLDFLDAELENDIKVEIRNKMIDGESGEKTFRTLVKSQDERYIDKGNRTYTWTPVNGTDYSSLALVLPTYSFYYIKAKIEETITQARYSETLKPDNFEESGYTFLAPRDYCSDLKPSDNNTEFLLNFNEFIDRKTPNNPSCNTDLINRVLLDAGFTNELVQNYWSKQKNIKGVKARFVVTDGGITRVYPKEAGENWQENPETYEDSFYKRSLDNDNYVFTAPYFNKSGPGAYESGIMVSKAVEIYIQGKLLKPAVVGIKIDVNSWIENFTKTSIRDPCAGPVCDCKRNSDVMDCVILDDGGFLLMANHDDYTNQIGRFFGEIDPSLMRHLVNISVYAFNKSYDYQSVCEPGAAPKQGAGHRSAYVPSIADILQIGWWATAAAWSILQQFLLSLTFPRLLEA
T1 sequence (P13806 961-1106 partner limits assumed, other chains not shown): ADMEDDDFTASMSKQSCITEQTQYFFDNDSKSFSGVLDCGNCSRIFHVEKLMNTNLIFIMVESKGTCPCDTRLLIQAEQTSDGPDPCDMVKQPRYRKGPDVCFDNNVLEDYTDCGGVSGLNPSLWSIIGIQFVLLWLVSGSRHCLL
Briefly: Inhibition of 3H-nitrendipine binding (P#166 Nit. Binding). Also on record: species or system rabbit. The settings on record: for inhibition at 1 µM: @ 1.0 μM test compound; for IC50: rabbit heart membranes, 3H-nitrendipine 0.05-0.50 nM. As for the experimental part:
The assay for inhibition of nitrendipine binding is performed using the following procedure:
Female, New Zealand white rabbits (1-2 kg) are sacrificed by cervical dislocation, and the heart is immediately removed, cleaned and chopped into small pieces. The tissue is homogenized in 5×volume of 0.05M Hepes buffer, pH 7.4. The homogenate is centrifuged at 4000×g for 10 minutes, and the supernatant is recentrifuged at 42,000×g for 90 minutes. The resulting membrane pellet is resuspended (0.7 ml/g weight) in 0.05M Hepes, pH 7.4 and stored at […] until used. Each tube of the binding assay contains ^3 H-nitrendipine (0.05-0.50 nM), buffer, membranes (0.10 ml), and test compound in a total volume of 1.0 ml. After 90 minutes at 4° C., the bound nitrendipine is separated from the unbound by filtration on Whatman GF/C filters. After rinsing, the filters are dried and counted in a liquid scintillation counter.
Non-specific binding of ^3 H-nitrendipine (that amount bound in the presence of excess unlabelled nitrendipine) is subtracted from the total bound to obtain specifically bound radiolabeled nitrendipine. The amount of specifically bound nitrendipine in the presence of a test compound is compared to that amount bound in the absence of a compound. A percent displacement (or inhibition) can then be obtained.

Values joined by “and” are separate entries in the source; they are usually repeats but may differ in a detail not shown here. Equal entries are not always repeated.

In the case of `CCOC(=O)C1=C(C)NC2=C(C1c1c(F)c(F)c(F)c(F)c1F)S(=O)(=O)CCN(C(=O)OC(C)(C)C)C2` (stereo not shown) [pentafluoro / BOC / ethyl], in the experiment with aorta tissue, the inhibition at 0.1 µM was determined as 0% and the inhibition at 1 µM amounted to 37%. Moreover, the inhibition at 2 µM with trachealis muscle tissue came to 7%. Besides, the inhibition at 1 µM in experiment [1] was 24%.

With `CCOC(=O)C1=C(C)NC2=C(C1c1cccc(Cl)c1Cl)S(=O)(=O)CCN(C)C2` (stereo not shown) [2,3-dichloro / Me / ethyl, Ethyl 9-(2,3-dichlorophenyl)-4,7-dimethy-1,1-dioxo-2,3,4,5,6,9-hexahydropyrido[2,3-f][1,4]thiazepine-8-carboxylate], in the experiment with aorta tissue, the inhibition at 0.01 µM turned out to be 67%, the inhibition at 0.1 µM amounted to 96% and the inhibition at 1 µM was determined as 97%. In the experiment on trachealis muscle tissue, the inhibition at 0.01 µM stood at 55%, the inhibition at 0.1 µM came to 80% and the inhibition at 2 µM was 98%. The IC50 (in general, the point on the concentration scale where inhibition reaches its midpoint) in experiment [1] was 120 nM.

With `CCOC(=O)C1=C(C)NC2=C(C1c1c(F)c(F)c(F)c(F)c1F)S(=O)(=O)CCNC2` (stereo not shown) [pentafluoro / H / ethyl, Ethyl 1,1-dioxo-2,3,4,5,6,9-hexahydro-7-methyl-9-(2,3,4,5,6-pentafluorophenyl)-pyrido[2,3-f][1,4]-thiazepine-8-carboxylate], in the experiment with aorta tissue, the inhibition at 0.01 µM was 61%, the inhibition at 0.1 µM was 89% and the inhibition at 1 µM worked out at 95%. Further, in the experiment with trachealis muscle tissue, the inhibition at 0.01 µM worked out at 13%, the inhibition at 0.1 µM was 63% and the inhibition at 2 µM was 98%. For the same compound, the IC50 in experiment [1] is 90 nM.

Consider `CC1=C(C(=O)OCCN(C)Cc2ccccc2)C(c2cccc(Cl)c2Cl)C2=C(CNCCS2(=O)=O)N1` (stereo not shown) [2,3-dichloro / H / NBzNMe-ethyl, 2-(N-benzyl-N-methylamino)ethyl 9-(2,3-dichlorophenyl)-1,1-dioxo-2,3,4,5,6,9-hexahydro-7-methylpyrido[2,3-f][1,4]thiazepine-8-carboxylate], for which the inhibition at 0.03 µM with aorta tissue (0.03 μM) is 20%. Besides, in the experiment with aorta tissue, the inhibition at 0.1 µM stood at 48% and the inhibition at 1 µM was 93%. In the experiment on trachealis muscle tissue, the inhibition at 0.1 µM stood at 23%, the inhibition at 0.3 µM was 62% and the inhibition at 2 µM was 86%. The IC50 in experiment [1] was found to be 380 nM.

`CCCN1CCS(=O)(=O)C2=C(C1)NC(C)=C(C(=O)OCC)C2c1cccc(Cl)c1Cl` (stereo not shown) [2,3-dichloro / Pr / ethyl]: in the experiment with aorta tissue, the inhibition at 0.01 µM worked out at 53%, the inhibition at 0.1 µM stood at 88% and the inhibition at 1 µM came to 100%. In the experiment on trachealis muscle tissue, the inhibition at 0.03 µM was determined as 30%, the inhibition at 0.1 µM came to 44%, the inhibition at 0.3 µM is 53% and the inhibition at 2 µM was 68%. The IC50 in experiment [1] stood at 145 nM.

For the compound `CCOC(=O)C1=C(C)NC2=C(C1c1cccc(Cl)c1Cl)S(=O)(=O)CCN(C(C)C)C2` (stereo not shown) [2,3-dichloro / iPr / ethyl], in the experiment on aorta tissue, the inhibition at 0.01 µM was 38%, the inhibition at 0.1 µM stood at 83% and the inhibition at 1 µM was determined as 95%. In the experiment on trachealis muscle tissue, the inhibition at 0.1 µM was determined as 37%, the inhibition at 0.3 µM was 61% and the inhibition at 2 µM came out at 86%. Further, in experiment [1], the IC50 came to 72 nM.

For `CCOC(=O)C1=C(C)NC2=C(C1c1c(F)cccc1Cl)S(=O)(=O)CCNC2` (stereo not shown) [2-Cl, 6-F / H / ethyl], in the experiment on aorta tissue, the inhibition at 0.01 µM was found to be 4.8% and the inhibition at 1 µM worked out at 86%. In the experiment on trachealis muscle tissue, the inhibition at 0.3 µM amounted to 56% and the inhibition at 2 µM was found to be 88%. The IC50 in experiment [1] stood at 870 nM.

On to `CCOC(=O)C1=C(C)NC2=C(C1c1cccc(Cl)c1Cl)S(=O)(=O)CCNC2` (stereo not shown) [2,3-dichloro / H / ethyl, Ethyl 9-(2,3-dichlorophenyl)-1,1-dioxo-2,3,4,5,6,9-hexahydro-7-methyl-pyrido[2,3-f][1,4]thiazepine-8-carboxylate], for which the inhibition at 0.01 µM in the experiment with aorta tissue worked out at 21%. For the same compound, the figures for the inhibition at 0.1 µM in the experiment on aorta tissue and with trachealis muscle tissue were 85% and 43%, respectively. The inhibition at 1 µM with aorta tissue is 96%; in the experiment with trachealis muscle tissue (1.0 μM), 73%. Further, the IC50 in experiment [1] was 99 nM and 105 nM.

For the compound `CCOC(=O)C1=C(C)NC2=C(C1c1cccc(Cl)c1Cl)S(=O)(=O)CCN(C(=O)OC(C)(C)C)C2` (stereo not shown) [2,3-dichloro / BOC / ethyl, Ethyl 9-(2,3-Dichlorophenyl)-4-(t-butyloxycarbonyl) -1,1-dioxo-2,3,4,5,6,9-hexahydro-7-methylpyrido[2,3-f][1,4]thiazepine-8-carboxylate], the inhibition at 0.3 µM with aorta tissue (0.3 μM) amounted to 4%. The inhibition at 1 µM in the experiment with aorta tissue came out at 18%; in experiment [1] it was 32%. Also, in the experiment on trachealis muscle tissue, the inhibition at 2 µM turned out to be 0%.

With `CCOC(=O)C1=C(C)NC2=C(C1c1cccc([N+](=O)[O-])c1)S(=O)(=O)CCNC2` (stereo not shown) [3-nitro / H / ethyl], in the experiment with aorta tissue, the inhibition at 0.1 µM is 88% and the inhibition at 1 µM turned out to be 100%. Besides, in the experiment on trachealis muscle tissue, the inhibition at 0.03 µM worked out at 58% and the inhibition at 2 µM was determined as 93%. Also, the IC50 in experiment [1] is 240 nM.

As to `CCOC(=O)C1=C(C)NC2=C(C1c1cccc(Cl)c1Cl)S(=O)(=O)CCN(Cc1ccccc1)C2` (stereo not shown) [2,3-dichloro / Bz / ethyl, Ethyl 4-N-Benzyl-9-(2,3-dichlorophenyl) -1,1-dioxo-2,3,4,5,6,9-hexahydro-7-methylpyrido [2,3-f][1,4]thiazepine-8-carboxylate], in the experiment on aorta tissue, the inhibition at 1 µM was determined as 79%. Moreover, in the experiment on trachealis muscle tissue, the inhibition at 0.1 µM worked out at 10% and the inhibition at 2 µM was found to be 32%. For the same compound, the IC50 in experiment [1] came to 210 nM.
